Data from patent US20100210534A1, “USE OF A PEPTIDE AS A THERAPEUTIC AGENT” (priority 2007, published 2010).
No end group written: not given here.

Assays:
HIV-1IIIB = experiment: HIV-1 antiviral assay in CEM-SS cells (MTS readout of virus-induced cell killing); type: cell-based
HCMV strain AD169 = experiment: HCMV plaque formation assay in MRC-5 cells; conditions: for inhibition of HCMV plaque formation as compared to the virus control: 10 micrograms per ml, 7-10 days
[1] = system: hepatitis B virus (HBV) ayw strain; experiment: HBV assay in HepG2-2.2.15 cells (secreted HBV DNA by TaqMan PCR); type: cell-based; conditions: 10 micrograms per ml, six days, HBV DNA in supernatant
[2] = system: Primary Human endothelial cells (HUVEC); experiment: Endothelial cell migration assay; conditions: 10 micrograms per ml, 22 hours, combination peptide 1: peptide 2 0.95 mole: 1.05 mole
Description: Primary Human endothelial cells (HUVEC) were seeded in insert chambers with 3 micrometer pore size of multi-transwell plate for 6 hours at 37° C. in Endothelial Cell Basal Medium (EBM) supplemented with 0.1% bovine serum albumin. Thereafter, designated concentration of testing peptides—10 micrograms per ml—was added in duplicate wells. The endothelia were allowed to migrate for 22 hours at 37° C., then, migrated cells were fixed and stained with Hoechst 33342 dye. Images of 3 fields per insert were taken and the number of migrated cells per field were quantified using the ImageProPlus software. Data were analyzed for the average number of the migrated cells and standard deviation of six data points for each treatment condition. […] Statistic p values were computed using the Student's t-test.

HUVEC = experiment: Endothelial tube formation assay; conditions: 10 micrograms per ml, 20 hours, combination peptide 1: peptide 2 0.95 mole: 1.05 mole
Description: The endothelial tube formation assay is based on the ability of endothelial cells to form three-dimensional capillary-like tubular structures when cultured on a gel of basement membrane extract. […] Pre-labeled HUVEC with Calcein AM were seeded in a 96-well culture plate coated with extracellular metrix (Chemicon international Cat. ECM625) and treated with test peptides—10 micrograms per ml—in full growth medium. Positive control was vehicle only. The endothelial cells were allowed to form tubes foe 20 hours and were then examined under an inverted fluorescent microscope. Duplicate wells for each treatment were photographed and quantitatevily analyzed for an average tubule length using image analysis software ImageProPlus. Raw data were expressed as average tubule lenghs in pixels±standard deviation. Statistic p values were computed using the Student's t-test.

[3] = system: spleen cells of Ovalbumin-immunized Balb/c mice; experiment: Th1/Th2 cytokine profiling assay (Ovalbumin-restimulated spleen cells, CBA kit); conditions: 10 micrograms per ml; Ovalbumin restimulation, 72 hours
Excerpt: The Balb/c mice (originated in 1923, it is a popular strain and is used in many different research disciplines. Also classified as an inbred from the production of 20 or more successive brother-sister matings, the Balb/c mouse is albino and small in size) were immunized on Days 1, 15, and 29 with Ovalbumin (Ovalbumin is the main protein found in egg white, commonly used to stimulate an immunological reaction in test animals) in PBS (5 micrograms/injection). On day 50, spleens of the mice were harvested (3 weeks after last boost with Ovalbumin). […] Thereafter, additional Ovalbumin was added to the cells at 10 micrograms/ml for in vitro restimulation of the cells. 72 hours later, cell supernatants were harvested and assayed using the Becton Dickinson Mouse Th1/Th2 Cytokine CBA Kit.

Compound	antiviral activity of positive control compounds (HIV-1) (HIV-1IIIB)	antiviral activity of positive control compound (HCMV) (HCMV strain AD169; positive control, HCMV AD169)	inhibition of HBV replication as compared to the virus control infection [1]	inhibition of the migration of human endothelial cells [2]	inhibition of the tube formation endothelial cells (HUVEC)	inhibition of HCMV plaque formation as compared to the virus control (HCMV strain AD169)	IFNγ spleen cells; TH1 response (% of control) [3]	IL-2 spleen cells (% of control) [3]	IL-4 spleen cells; TH2 response (% of control) [3]	IL-5 spleen cells; TH2 response (% of control) [3]	TNF-a spleen cells; TH1 response (% of control) [3]
Cc1cn([C@H]2C[C@H](N=[N+]=[N-])[C@@H](CO)O2)c(=O)[nH]c1=O [AZT]	expected levels of antiviral activity	–	–	–	–	–	–	–	–	–	–
Nc1nc(O)c2ncn(COC(CO)CO)c2n1 [Ganciclovir, reference compound]	–	expected levels of antiviral activity	–	–	–	–	–	–	–	–	–
CC(C)(C)NC(=O)[C@@H]1CN(Cc2cccnc2)CCN1C[C@@H](O)C[C@@H](Cc1ccccc1)C(=O)N[C@H]1c2ccccc2C[C@H]1O [indinavir]	expected levels of antiviral activity	–	–	–	–	–	–	–	–	–	–
Ala-Ala-Val-Ala-Leu-Leu-Pro-Ala-Val-Leu-Leu-Ala-Leu-Leu-Ala-Pro-Val-Gln-Arg-Lys-Arg-Gln-Lys-Leu-Met-Pro-OH (AAVALLPAVLLALLAPVQRKRQKLMP-OH) [Peptide 1]	–	–	40.7%	did not inhibit	did not inhibit	did not inhibit	63.7 % of control	153.6 % of control	118.2 % of control	74.6 % of control	108.5 % of control
Arg-Val-Tyr-Ile-His-Pro-Phe-OH (RVYIHPF-OH) [Peptide 2]	–	–	44.1%	did not inhibit	3%	did not inhibit	126.8 % of control	119.1 % of control	117.2 % of control	69.6 % of control	106.3 % of control
